In patent US20130310387A1, “Monocyclic Heteroaryl Cycloalkyldiamine Derivatives” (NOVARTIS AG, priority 2012, published 2013):

What was measured:
[1] = target: T1, hERG channel (Homo sapiens, UniProt Q12809); test: Inhibition of the hERG channel (manual patch clamp assay); format: cell-based; details: HEK293 cells stably transfected with hERG cDNA, whole-cell patch clamp, tail current
T1 construct: host or cells: HEK293
Excerpt: The hERG patch clamp assay was done according to standard procedures used in Genetic Toxicology and Safety Pharmacology, based on recommendations and descriptions of methods in the literature, and according to current guidelines (ICH S7B, The non clinical evaluation of the potential for delayed ventricular repolarization (QT interval prolongation) by human pharmaceuticals, 2005). The purpose of the study is to assess the effect of the test item ABC123 on tail current recorded from HEK293 cells stably transfected with hERG cDNA. The HEK293 cells, which have been stably transfected with hERG cDNA, are a model considered to be suitable for this purpose (Zhou et al., 1998). Repolarisation of cardiac ventricular myocytes is mainly due to outward potassium currents. The most important current in humans is the delayed rectifier potassium current, IK, which has both rapidly and slowly activating components (IKr and IKs) (Sanguinetti and Jurkiewicz, 1990). The human ether-a-gogo-related-gene (hERG) encodes the major protein underlying IKr. Thus, inhibition of hERG potassium channels may lead to delayed cardiac repolarisation (Sanguinetti et al., 1995). Prolongation of cardiac repolarisation is a side effect that can be associated with some drug therapies. This proarrhythmic alteration is characterised by a prolongation of the QT interval in the surface electrocardiogram and is of particular concern because it may lead to the development of polymorphic ventricular arrhythmias like torsade de pointes (for review see: Vandenberg, Walker and Campbell, 2001). […] HERG HEK (HEK293 cells stably transfected with hERG cDNA) obtained from the University of Wisconsin were used. For the experiments the cells were plated onto sterile Thermanox plastic coverslips (Nalge Nunc International) in 6-well plates. The dishes were stored in a humidified, gassed incubator. The coverslips with cells were transferred to the recording chamber and continuously superfused (at approximately 1-2 ml/min) with vehicle. The temperature of the vehicle in the bath chamber was regulated by temperature controllers to 35° C.±2.0° C. hERG currents were measured in the whole-cell patch-clamp configuration. Once a stable patch clamp configuration was achieved, recording commenced in voltage-clamp mode, with the cell initially clamped at -75 mV. hERG current was observed and recorded if a stable hERG tail current response could be induced. […] The hERG HEK293 cells were treated approximately 9 min with the test item. The following voltage protocol was applied to induce hERG currents: The step from -75 mV to +10 mV activates an outward current (i.e. current flows out of the cell) and the step from +10 mV to -40 mV produces the tail current (the tail current represents the time taken for the current to turn off). […] The leak current was recorded and subtracted by a P/3n pulse between the voltage pulses (0.1 Hz).

[2] = test system: HBL-1 cells; test: cells; details: HBL1, 96 h
[3] = test system: SLP-76 phosphorylation in human whole blood monocytes; test: FcR stimulation-induced SLP-76 phosphorylation in human whole blood monocytes; format: cell-based; details: Monocyte, 5 min, anti CD32 stimulation 5 min, flow cytometry, read-out: Fc Recepor stimulation induced SLP-76 phosphorylation in human whole blood monocytes, IC50
Excerpt: After lysis of erythrocytes and washings, the cell pellet was permeabilized with ice-cold methanol 90%. The permeabilized cells were washed and stained with anti CD14 (eBioscience) to detect monocytes and anti P-SLP76 ([…]) (BD Biosciences) and quantified by flow cytometry.

[4] = target: Syk (2-635) (KSYK_HUMAN, P43405) (Homo sapiens, UniProt P43405); test: Syk enzyme assay (chip based microfluidic mobility shift assay); format: biochemical; details: 4 μM ATP, 4 nM Syk, 60 minutes at 30° C.
Experimental: A number of compounds of the present invention were assayed in a chip based microfluidic mobilitiy shift assay. All assays were performed in 384 well microtiter plates. Each assay plate contained 8-point serial dilutions for 40 test compounds, as well as four 8-point serial dilutions of staurosporine as reference compound, plus 16 high- and 16 low controls. Liquid handling and incubation steps were done on a Thermo CatX workstation equipped with a Innovadyne Nanodrop Express. Between pipetting steps, tips were cleaned in wash cycles using wash buffer. The assay plates were prepared by addition of 50 nl per well of compound solution in 90% DMSO. […] Kinase reactions were incubated at 30° C. for 60 minutes and subsequently terminated by addition of 16 μl per well of stop solution (100 mM HEPES pH 7.5, 5% DMSO, 0.1% Caliper coating reagent, 10 mM EDTA, and 0.015% Brij35). Plates with terminated kinase reactions were transferred to the Caliper LC3000 workstations for reading. Phosphorylated and unphosphorylated peptides were separated using the Caliper microfluidic mobility shift technology. Briefly, samples from terminated kinase reactions were applied to the chip. Analytes are transported through the chip by constant buffer flow and the migration of the substrate peptide is monitored by the fluorescence signal of its label. Phosphorylated peptide (product) and unphosphorylated peptide (substrate) are separated in an electric field by their charge/mass ratio. Kinase activities were calculated from the amounts of formed phospho-peptide. […] values were determined from percent inhibition values at different compound concentrations by non-linear regression analysis.
Test compounds were dissolved in DMSO (10 mM) and transferred into 1.4 mL flat bottom or V-shaped Matrix tubes carrying a unique 2D matrix. The stock solutions were stored at […] if not used immediately. For the test procedure the vials were defrosted and identified by a scanner whereby a working sheet was generated that guided the subsequent working steps.
Compound dilutions were made in 96 well plates. This format enabled the assay of maximally 40 individual test compounds at 8 concentrations (single points) including 4 reference compounds. The dilution protocol included the production of “pre-dilution plates”, “master plates” and “assay plates”.
96 polypropylene well plates were used as pre-dilution plates. A total of 4 pre-dilution plates were prepared including 10 test compounds each on the plate positions A1-A10, one standard compound at A11 and one DMSO control at A12. All dilution steps were done on a HamiltonSTAR robot.
30 μL of individual compound dilutions including standard compound and controls of the 4 “pre-dilution plates” were transferred into a 384 “master plate” including the following concentrations 1′810, 362, 72.5, […], 14.5, 2.9, 0.58 and 0.12 μM, respectively in 90% of DMSO.
Identical “assay plates” were then prepared by pipetting […] each of compound dilutions of the “master plates” into 384-well “assay plates” by means of a HummingBird 384-channel dispenser. These plates were used directly for the assay which was performed in a total volume of 9.05 μL. This led to a final compound concentration of 10, 2.0, 0.4, 0.08, 0.016, 0.0032, 0.00064 and 0.000128 μM and a final DMSO concentration of 0.5% in the assay.

T1 sequence (Q12809 whole entry): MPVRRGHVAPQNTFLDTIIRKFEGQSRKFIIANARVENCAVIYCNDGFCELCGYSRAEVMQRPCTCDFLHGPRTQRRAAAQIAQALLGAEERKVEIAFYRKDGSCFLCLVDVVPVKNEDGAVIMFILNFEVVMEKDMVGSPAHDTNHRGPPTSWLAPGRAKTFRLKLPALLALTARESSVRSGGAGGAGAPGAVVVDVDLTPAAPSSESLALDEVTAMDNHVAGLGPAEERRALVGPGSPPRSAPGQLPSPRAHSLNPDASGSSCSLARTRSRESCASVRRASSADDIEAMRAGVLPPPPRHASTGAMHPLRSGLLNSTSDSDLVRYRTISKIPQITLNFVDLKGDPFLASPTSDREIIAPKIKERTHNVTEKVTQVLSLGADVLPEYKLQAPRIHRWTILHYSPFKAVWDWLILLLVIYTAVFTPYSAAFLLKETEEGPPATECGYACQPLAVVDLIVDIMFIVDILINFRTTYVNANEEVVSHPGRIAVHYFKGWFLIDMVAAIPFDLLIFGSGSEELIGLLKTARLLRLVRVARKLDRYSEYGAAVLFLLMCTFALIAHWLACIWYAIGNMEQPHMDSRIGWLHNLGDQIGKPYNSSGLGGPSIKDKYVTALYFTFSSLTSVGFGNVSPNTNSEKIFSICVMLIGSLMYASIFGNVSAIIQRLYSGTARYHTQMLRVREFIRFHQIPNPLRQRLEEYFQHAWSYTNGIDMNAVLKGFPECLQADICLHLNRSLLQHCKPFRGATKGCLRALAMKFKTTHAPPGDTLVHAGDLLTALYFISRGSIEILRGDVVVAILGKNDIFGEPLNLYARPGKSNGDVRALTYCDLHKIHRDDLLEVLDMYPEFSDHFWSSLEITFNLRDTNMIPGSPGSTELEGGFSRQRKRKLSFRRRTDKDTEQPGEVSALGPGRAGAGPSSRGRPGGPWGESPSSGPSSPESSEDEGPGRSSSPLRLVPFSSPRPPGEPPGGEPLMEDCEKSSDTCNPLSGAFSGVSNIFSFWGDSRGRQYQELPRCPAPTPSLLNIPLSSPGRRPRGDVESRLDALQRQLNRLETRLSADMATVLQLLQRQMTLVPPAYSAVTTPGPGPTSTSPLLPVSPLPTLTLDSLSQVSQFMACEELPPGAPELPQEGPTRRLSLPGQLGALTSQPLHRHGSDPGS

In the case of NC(=O)c1nnc(N[C@@H]2CCCC[C@@H]2N)nc1Nc1cccc2cc[nH]c12 [Example 1.1, 3-((1R,2S)-2-Amino-cyclohexylamino)-5-(1H-indol-7-ylamino)-[1,2,4]triazine-6-carboxylic acid amide], the inhibition at 9 min, 10 µM ([1]; at 10 uM) is reported as -5 ± 4%, the inhibition at 9 min, 30 µM ([1]; at 30 uM) is reported as 12 ± 6% and the GI50 [2] is reported as 105 nM. It also gave an IC50 [3] of 378 nM and an IC50 [4] of 23 nM.
